3 compounds from patent EP0589874B1, “USE OF (S)(+)-2-ETHOXY-4-[N-[1-(2-PIPERIDINOPHENYL)-3-METHYL-1-BUTYL]AMINOCARBONYLMETHYL]BENZOIC ACID FOR THE PREPARATION OF A LONGLASTING ANTIDIABETIC MEDICAMENT” (Boehringer Ingelheim Pharma KG, priority 1991, dated 1993) can be followed below.

The nature of data set [1]: Plasma concentrations in volunteers after one tablet of racemate or (S)-enantiomer. The format is in vivo, Menschen. The following applies: human, po; for concentration at 4 h: read-out: Konzentrationen nach 4 Stunden; for concentration at 5 h: read-out: Konzentrationen nach 5 Stunden; for concentration at 6 h: read-out: Konzentrationen nach 6 Stunden; for Cmax: read-out: Maximal-Konzentrationen. The protocol:
(§1) Abbildung 1 gibt hierbei die Plasma-Konzentration von AG-EE 623 ZW und AG-EE 624 ZW nach 1,0 mg i.v. AG-EE 388 ZW und Abbildung 2 die Plasma-Konzentration von AG-EE 623 ZW und AG-EE 624 ZW nach 1,0 mg p.o. (Lösung) AG-EE 388 ZW jeweils an 12 freiwilligen männlichen Probanden wieder. […] Dies wirkt sich z.B. bei Applikation einer Tablette mit 2 mg AG-EE 388 ZW bzw. einer Tablette mit 1 mg AG-EE 623 ZW an 12 bzw. 6 Probanden so aus, daß die Maximal-Konzentrationen 84 ± 25 bzw. 28 ± 18 ng/ml sowie die Konzentrationen nach 4 Stunden 19 ± 8 bzw. 0,7 ± 1,0 ng/ml, nach 5 Stunden 13 ± 6 bzw. 0,3 ± 0,7 ng/ml und nach 6 Stunden 10 ± 6 bzw. 0,3 ± 0,7 ng/ml betragen.

The subject of another data set is weiblichen Ratten. The data set can be described thus: Blood-glucose-lowering effect in female rats. The format is in vivo, Ratte. The note with it: for blutzuckersenkende Wirkung: female rats. An excerpt: Die beiden Enantiomeren dieser Verbindung, nämlich (S)(+)-2-Äthoxy-4-[N-[1-(2-piperidino-phenyl)-3-methyl-1-butyl] aminocarbonylmethyl]-benzoesäure (Code-Nr.: AG-EE 623 ZW) und (R)(-)-2-Äthoxy-4-[N-[1-(2-piperidino-phenyl)-3-methyl-1-butyl]aminocarbonylmethyl]-benzoesäure (Code-Nr.: AG-EE 624 ZW), wurden auf ihre blutzuckersenkende Wirkung an weiblichen Ratten geprüft.

Details of data set [2]: species or system Menschen. The note with it: in vivo. On the procedure:
as §1

A further data set deals with Ratten. Kind of data set: Acute oral toxicity in rats, single dose, 14 days observation. The format is in vivo.
The format of data set [3] is in vivo, Menschen. An excerpt: Auf Grund dieser Ergebnisse an der Ratte erscheint für den Menschen die ausschließliche Verwendung von AG-EE 623 ZW geboten, wodurch die Dosis im Vergleich zur AG-EE 388 ZW-Dosis um 50 % reduziert werden kann. […] Darüber hinaus wurde jedoch bei den Human-Studien gefunden, daß AG-EE 623 ZW überraschende pharmakokinetische Eigenschaften aufweist, die auf Grund der AG-EE 388 ZW-Daten nicht vorhersehbar waren. AG-EE 623 ZW zeigt somit überraschende therapeutische Vorteile gegenüber dem Racemat AG-EE 388 ZW.

Setting [4] is: tablet with 2 mg AG-EE 388 ZW, 12 volunteers.
Where [5] appears, read: tablet with 1 mg AG-EE 623 ZW, 6 volunteers.

The structures appear in SMILES notation. Like-named read-outs stand apart in the source and are kept apart here. Bounds are passed on as bounds.

In the case of `CCOc1cc(CC(=O)NC(CC(C)C)c2ccccc2N2CCCCC2)ccc1C(=O)O` (racemic) [AG-EE 388 ZW, 2-Äthoxy-4-[N-[1-(2-piperidino-phenyl)-3-methyl-1-butyl]aminocarbonylmethyl]-benzoesäure, reference compound], in data set [1] (setting [4]), the concentration at 4 h is 19 ± 8 ng/mL, the concentration at 5 h was found to be 13 ± 6 ng/mL, the concentration at 6 h is 10 ± 6 ng/mL and the Cmax is 84 ± 25 ng/mL.

For the compound `CCOc1cc(CC(=O)N[C@H](CC(C)C)c2ccccc2N2CCCCC2)ccc1C(=O)O` [AG-EE 624 ZW, (R)(-)-2-Äthoxy-4-[N-[1-(2-piperidino-phenyl)-3-methyl-1-butyl]aminocarbonylmethyl]-benzoesäure], in the data set with weiblichen Ratten, the “blutzuckersenkende Wirkung” value is “unwirksame Enantiomere”. The “Plasma-Konzentrationen nach Racemat-Gabe” value in data set [2] was “in unerwartet höheren Maximal- und Dauer-Spiegeln anwesend”.

In the case of `CCOc1cc(CC(=O)N[C@@H](CC(C)C)c2ccccc2N2CCCCC2)ccc1C(=O)O` [AG-EE 623 ZW, (S)(+)-2-Äthoxy-4-[N-[1-(2-piperidino-phenyl)-3-methyl-1-butyl]aminocarbonylmethyl]-benzoesäure], the Toxizität result with Ratten (rats, 1000 mg/kg p.o.) is recorded as “praktisch untoxisch”. Also, the “verstorbene Tiere” value with Ratten (single 1000 mg/kg p.o., suspension in 1% methylcellulose, 5 male and 5 female rats, 14 days) was “kein Tier”. In data set [3] (human), the “Eintritt der blutzuckersenkenden Wirkung” value was “rascher ein als nach AG-EE 388 ZW-Gabe” and the Wirkungsdauer result was “relativ lange Wirkungsdauer”. In data set [3] (in vivo), the “Abfall der Spiegel” value was “fallen rascher gegen null als die AG-EE 388 ZW-Spiegel” and the “Plasmaspiegel in Relation zur erzielten Blutzuckersenkung” value was “wesentlich niedrigere Plasmaspiegel”. In the data set with weiblichen Ratten, the “blutzuckersenkende Wirkung” value is recorded as “wirksame Enantiomere”. Besides, in the data set on weiblichen Ratten (rat), the “Dauer der Wirkung (Wirkung hält an)” value is listed as above 6 Stunden. Also, the “Elimination (Plasma-Konzentration)” value in data set [2] was “wesentlich schneller als das unwirksame Enantiomere, AG-EE 624 ZW, eliminiert”. Moreover, in data set [1] (setting [5]), the concentration at 4 h came to 0.7 ng/mL, the concentration at 5 h worked out at 0.3 ng/mL, the concentration at 6 h amounted to 0.3 ng/mL and the Cmax was 28 ± 18 ng/mL.
